Like-named read-outs stand apart in the source and are kept apart here.
Assays:
Human Full Length PARG = Human Full Length PARG (Homo sapiens (Human), UniProt Q86W56); experiment: PARG enzyme assay (TR-FRET); type: biochemical; details: read-out: PARG Biochem IC50
PARG in HeLa cell line = experiment: PARG cell assay (PAR chain immunofluorescence after MMS); type: cell-based; details: HeLa cells, MMS treatment, read-out: PARG Cell IC50
Summary of the method: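 HeLa cells were dosed with compound for 1 h, then given MMS at 50 μg/mL final for a further hour. Cells were methanol-fixed, permeabilised and stained overnight at 4° C with anti-PAR monoclonal antibody. Retained nuclear PAR chains, detected by indirect immunofluorescence, indicate PARG inhibition.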

Chain of Human Full Length PARG (Q86W56 whole entry): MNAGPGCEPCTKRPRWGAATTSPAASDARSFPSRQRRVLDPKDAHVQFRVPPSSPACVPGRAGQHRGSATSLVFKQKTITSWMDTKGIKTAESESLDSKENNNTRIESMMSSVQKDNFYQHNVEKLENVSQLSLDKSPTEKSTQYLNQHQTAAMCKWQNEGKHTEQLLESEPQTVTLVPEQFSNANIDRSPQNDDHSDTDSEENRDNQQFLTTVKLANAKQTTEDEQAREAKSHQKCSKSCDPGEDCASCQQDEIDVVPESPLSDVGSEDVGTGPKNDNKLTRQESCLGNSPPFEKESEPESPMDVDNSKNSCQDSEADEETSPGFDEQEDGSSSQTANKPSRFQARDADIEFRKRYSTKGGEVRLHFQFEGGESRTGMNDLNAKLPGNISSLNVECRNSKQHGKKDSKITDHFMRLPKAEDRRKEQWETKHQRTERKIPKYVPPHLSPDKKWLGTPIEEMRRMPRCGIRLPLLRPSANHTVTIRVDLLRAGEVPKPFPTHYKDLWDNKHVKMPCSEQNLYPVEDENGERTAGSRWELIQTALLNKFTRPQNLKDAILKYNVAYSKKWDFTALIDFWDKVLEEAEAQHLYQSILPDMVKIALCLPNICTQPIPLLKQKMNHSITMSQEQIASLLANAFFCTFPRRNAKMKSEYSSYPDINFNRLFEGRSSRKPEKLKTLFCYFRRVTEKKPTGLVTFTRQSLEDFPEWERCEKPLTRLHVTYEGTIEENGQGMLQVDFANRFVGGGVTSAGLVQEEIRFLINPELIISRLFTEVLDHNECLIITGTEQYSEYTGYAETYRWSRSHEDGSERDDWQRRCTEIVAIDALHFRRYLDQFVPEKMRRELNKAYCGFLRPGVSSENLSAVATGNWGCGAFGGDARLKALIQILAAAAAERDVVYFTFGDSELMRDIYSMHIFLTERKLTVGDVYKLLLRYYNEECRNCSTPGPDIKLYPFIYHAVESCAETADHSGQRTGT

| Compound | IC50 (Human Full Length PARG) [nM] | IC50 (PARG in HeLa cell line; Homo sapiens) [nM] | IC50 (PARG in HeLa cell line) [nM] |
| --- | --- | --- | --- |
| CCn1c(=O)n(Cc2cnn(C)c2)c(=O)c2cc(S(=O)(=O)NC3(CF)CC3)ccc21 [Example 438, 1-Ethyl-N-[1-(fluoromethyl)cyclopropyl]-3-[(1-methylpyrazol-4-yl)methyl]-2,4-dioxo-quinazoline-6-sulfonamide] | 106 | 84 |  |
| Cn1cc(Cn2c(=O)c3cc(S(=O)(=O)NC4(CF)CC4)ccc3n(CC#N)c2=O)cn1 [Example 439, 1-(Cyanomethyl)-N-[1-(fluoromethyl)cyclopropyl]-3-[(1-methylpyrazol-4-yl)methyl]-2,4-dioxo-quinazoline-6-sulfonamide] | 310 | 420 |  |
| C#CCn1c(=O)n(Cc2cnn(C)c2)c(=O)c2cc(S(=O)(=O)NC3(CF)CC3)ccc21 [Example 440, N-[1-(Fluoromethyl)cyclopropyl]-3-[(1-methylpyrazol-4-yl)methyl]-2,4-dioxo-1-prop-2-ynyl-quinazoline-6-sulfonamide] | 68 |  | 50 |
| Cc1cc(Cn2c(=O)n(Cc3cnn(C)c3)c(=O)c3cc(S(=O)(=O)NC4(CF)CC4)ccc32)on1 [Example 441, N-[1-(Fluoromethyl)cyclopropyl]-1-[(3-methylisoxazol-5-yl)methyl]-3-[(1-methylpyrazol-4-yl)methyl]-2,4-dioxo-quinazoline-6-sulfonamide] | 24 |  | 74 |
| Cn1cc(Cn2c(=O)c3cc(S(=O)(=O)NC4(CF)CC4)ccc3n(CC3CCOCC3)c2=O)cn1 [Example 442, N-[1-(Fluoromethyl)cyclopropyl]-3-[(1-methylpyrazol-4-yl)methyl]-2,4-dioxo-1-(tetrahydropyran-4-ylmethyl)quinazoline-6-sulfonamide] | 43 | 134 |  |
| Cn1cc(Cn2c(=O)c3cc(S(=O)(=O)NC4(CF)CC4)ccc3n(CC3CC3(F)F)c2=O)cn1 (stereo not shown) [Example 443, 1-[(2,2-Difluorocyclopropyl)methyl]-N-[1-(fluoromethyl)cyclopropyl]-3-[(1-methylpyrazol-4-yl)methyl]-2,4-dioxo-quinazoline-6-sulfonamide] | 58 | 67 |  |
| Cn1cc(Cn2c(=O)c3cc(S(=O)(=O)NC4(CF)CC4)ccc3n(CC3CC(F)(F)C3)c2=O)cn1 [Example 444, 1-[(3,3-Difluorocyclobutyl)methyl]-N-[1-(fluoromethyl)cyclopropyl]-3-[(1-methylpyrazol-4-yl)methyl]-2,4-dioxo-quinazoline-6-sulfonamide] | 63 |  | 90 |
| Cn1cc(Cn2c(=O)c3cc(S(=O)(=O)NC4(CF)CC4)ccc3n(CC3COC3)c2=O)cn1 [Example 445, N-[1-(Fluoromethyl)cyclopropyl]-3-[(1-methylpyrazol-4-yl)methyl]-1-(oxetan-3-ylmethyl)-2,4-dioxo-quinazoline-6-sulfonamide] | 102 | 417 |  |
| Cn1c(=O)n(Cc2ccnnc2)c(=O)c2cc(S(=O)(=O)NC3(C)CC3)ccc21 [Example 446, 1-Methyl-N-(1-methylcyclopropyl)-2,4-dioxo-3-(pyridazin-4-ylmethyl)quinazoline-6-sulfonamide] | 13400 | 18900 |  |
| COC(=O)c1cc(S(=O)(=O)NC2(C)CC2)cc2c(=O)n(Cc3cnn(C)c3)c(=O)[nH]c12 [Example 448, Methyl 6-[(1-methylcyclopropyl)sulfamoyl]-3-[(1-methylpyrazol-4-yl)methyl]-2,4-dioxo-1H-quinazoline-8-carboxylate] | 424 |  | 329 |
| CN(C)C(=O)c1cc(S(=O)(=O)NC2(C)CC2)cc2c(=O)n(Cc3cnn(C)c3)c(=O)[nH]c12 [Example 449, N,N-Dimethyl-6-[(1-methylcyclopropyl)sulfamoyl]-3-[(1-methylpyrazol-4-yl)methyl]-2,4-dioxo-1H-quinazoline-8-carboxamide] | 5780 | 13200 |  |
| CNC(=O)c1cc(S(=O)(=O)NC2(C)CC2)cc2c(=O)n(Cc3cnn(C)c3)c(=O)[nH]c12 [Example 450, N-Methyl-6-[(1-methylcyclopropyl)sulfamoyl]-3-[(1-methylpyrazol-4-yl)methyl]-2,4-dioxo-1H-quinazoline-8-carboxamide] | 213 | 2520 |  |
| CON(C)C(=O)c1cc(S(=O)(=O)NC2(C)CC2)cc2c(=O)n(Cc3cnn(C)c3)c(=O)[nH]c12 [Example 451, N-Methoxy-N-methyl-6-[(1-methylcyclopropyl)sulfamoyl]-3-[(1-methylpyrazol-4-yl)methyl]-2,4-dioxo-1H-quinazoline-8-carboxamide] | 3850 | 4500 |  |
| Cc1cc(Cn2c(=O)c3cc(S(=O)(=O)NC4(C)CC4)ccc3n(CC(C)(C)C#N)c2=O)on1 [Example 452, 1-(2-Cyano-2-methyl-propyl)-N-(1-methylcyclopropyl)-3-[(3-methylisoxazol-5-yl)methyl]-2,4-dioxo-quinazoline-6-sulfonamide] | 202 | 280 |  |
| Cn1cc(CN2C(=O)c3cccc4cc(S(=O)(=O)NC5(C)CC5)cc(c34)C2=O)cn1 [Example 454, N-(1-Methylcyclopropyl)-2-[(1-methylpyrazol-4-yl)methyl]-1,3-dioxo-benzo[de]isoquinoline-5-sulfonamide] | 728 | 2070 |  |
| CCn1c(=O)n(Cc2cnc(C)s2)c(=O)c2cc(S(=O)(=O)NC3(C#N)CC3)ccc21 [Example 455, N-(1-Cyanocyclopropyl)-1-ethyl-3-[(2-methylthiazol-5-yl)methyl]-2,4-dioxo-quinazoline-6-sulfonamide] | 177 | 283 |  |
| Cn1cc(Cn2c(=O)[nH]c3ccc(S(=O)(=O)NC4(C(F)F)CC4)cc3c2=O)cn1 [Example 456, N-[1-(Difluoromethyl)cyclopropyl]-3-[(1-methylpyrazol-4-yl)methyl]-2,4-dioxo-1H-quinazoline-6-sulfonamide] | 4110 |  | 5600 |
| Cc1ncc(Cn2c(=O)c3cc(S(=O)(=O)NC4(C#N)CC4)ccc3n(Cc3cnn(C)c3)c2=O)s1 [Example 457, N-(1-Cyanocyclopropyl)-1-[(1-methylpyrazol-4-yl)methyl]-3-[(2-methylthiazol-5-yl)methyl]-2,4-dioxo-quinazoline-6-sulfonamide] | 42 | 494 |  |
| Cn1cc(Cn2c(=O)c3cc(S(=O)(=O)NC4(C(F)F)CC4)ccc3n(CC3CC3)c2=O)cn1 [Example 458, 1-(Cyclopropylmethyl)-N-[1-(difluoromethyl)cyclopropyl]-3-[(1-methylpyrazol-4-yl)methyl]-2,4-dioxo-quinazoline-6-sulfonamide] | 1070 | 555 |  |
| Cc1cc(Cn2c(=O)n(Cc3cnn(C)c3)c(=O)c3cc(S(=O)(=O)NC4(C(F)F)CC4)ccc32)n(C)n1 [Example 459, N-[1-(Difluoromethyl)cyclopropyl]-1-[(2,5-dimethylpyrazol-3-yl)methyl]-3-[(1-methylpyrazol-4-yl)methyl]-2,4-dioxo-quinazoline-6-sulfonamide] | 325 | 1250 |  |
| Cn1cc(Cn2c(=O)c3cc(S(=O)(=O)NC4(C(F)F)CC4)ccc3n(Cc3ccc(F)cc3)c2=O)cn1 [Example 460, N-[1-(Difluoromethyl)cyclopropyl]-1-[(4-fluorophenyl)methyl]-3-[(1-methylpyrazol-4-yl)methyl]-2,4-dioxo-quinazoline-6-sulfonamide] | 333 | 487 |  |
| Cn1cc(Cn2c(=O)c3cc(S(=O)(=O)NC4(CF)CC4)ccc3n(CC3CCC3)c2=O)cn1 [Example 461, 1-(Cyclobutylmethyl)-N-[1-(fluoromethyl)cyclopropyl]-3-[(1-methylpyrazol-4-yl)methyl]-2,4-dioxo-quinazoline-6-sulfonamide] | 39 | 30 |  |
| COCCn1c(=O)n(Cc2cnn(C)c2)c(=O)c2cc(S(=O)(=O)NC3(CF)CC3)ccc21 [Example 462, N-[1-(Fluoromethyl)cyclopropyl]-1-(2-methoxyethyl)-3-[(1-methylpyrazol-4-yl)methyl]-2,4-dioxo-quinazoline-6-sulfonamide] | 244 | 322 |  |
| Cc1cc(CN2C(=O)c3cccc4cc(S(=O)(=O)NC5(C)CC5)cc(c34)C2=O)on1 [Example 464, N-(1-Methylcyclopropyl)-2-[(3-methylisoxazol-5-yl)methyl]-1,3-dioxo-benzo[de]isoquinoline-5-sulfonamide] | 1040 | 1080 |  |
| Cc1cc(Cn2c(=O)c3cc(S(=O)(=O)NC4(C)CC4)ccc3n(CC(C)(C)C)c2=O)on1 [Example 465, 1-(2,2-Dimethylpropyl)-N-(1-methylcyclopropyl)-3-[(3-methylisoxazol-5-yl)methyl]-2,4-dioxo-quinazoline-6-sulfonamide] | 283 | 188 |  |
| CC[C@H](C)Cn1c(=O)n(Cc2cc(C)no2)c(=O)c2cc(S(=O)(=O)NC3(C)CC3)ccc21 [Example 466, 1-[(2S)-2-Methylbutyl]-N-(1-methylcyclopropyl)-3-[(3-methylisoxazol-5-yl)methyl]-2,4-dioxo-quinazoline-6-sulfonamide] | 274 |  | 232 |
| Cc1cc(Cn2c(=O)c3cc(S(=O)(=O)NC4(C)CC4)ccc3n(CC3(C)CCC3)c2=O)on1 [Example 467, 1-[(1-Methylcyclobutyl)methyl]-N-(1-methylcyclopropyl)-3-[(3-methylisoxazol-5-yl)methyl]-2,4-dioxo-quinazoline-6-sulfonamide] | 361 | 214 |  |
| CCOC(=O)Cn1c(=O)c2cc(S(=O)(=O)NC3(C)CC3)ccc2n(C)c1=O [Example 468, Ethyl 2-[1-methyl-6-[(1-methylcyclopropyl)sulfamoyl]-2,4-dioxo-quinazolin-3-yl]acetate] | 3980 | 1120 |  |
| CCC(=O)Cn1c(=O)c2cc(S(=O)(=O)NC3(C)CC3)ccc2n(C)c1=O [Example 469, 1-Methyl-N-(1-methylcyclopropyl)-2,4-dioxo-3-(2-oxobutyl)quinazoline-6-sulfonamide] | 1200 | 663 |  |

From patent US10239843B2 (CANCER RESEARCH TECHNOLOGY LIMITED, priority 2014, dated 2019)
